The values below come from a melting point compilation (Tetko et al.; mined from patent text by program, amines drawn as free bases though some values may be those of a salt).

For orientation: melting point means the temperature of the solid-liquid transition. The compound `Cc1ccc(C(=O)Nc2ccc(CN3CCCCC3)c(C(F)(F)F)c2)cc1-c1ccc2cnncc2c1` yielded a melting point of 194 to 195 °C.

In the case of `CC(C)Cn1c(CNC(=O)OC(C)(C)C)c(-c2ccc(Cl)cc2)c2cc(C(=O)O)ccc2c1=O`, the melting point is 226 to 227 °C.

The compound `CCOC(OCC)c1cc(NC(c2ccccc2)(c2ccccc2)c2ccccc2)c(F)c(-c2ccc(Cl)c(OC)c2F)n1` gave a melting point of 177 to 180 °C.

Take `CCOP(=O)(OCC)C1(P(=O)(OCC)OCC)CC(C(=O)CC)=NN1`: the melting point is 96 to 98 °C.

`O=C(c1ccn2c1CSC2c1cccnc1)c1cn(C(=O)NCCc2c[nH]cn2)c2cc(-c3ccc(F)cc3)ccc12` (centres undefined) came in with a melting point of 156 to 158 °C.

On to `CC(C)(C)c1c(OCc2ccccc2)ccc2oc(C=O)cc12`, for which the melting point was 136 °C.

With `O=c1[nH]c2sc3ccc(C(F)(F)F)cc3c2[nH]c1=O`, the melting point is over 320 °C.

`O=c1ccc2cc(C(O)(C(F)(F)F)C(F)(F)F)cc3c2n1CCC3` registered a melting point of 295 to 296 °C.

Take `NC(=O)[C@@H]1C[C@]2(NC(=O)N(CCCN3CCC(O)CC3)C2=O)c2cc(F)ccc2O1`: the melting point lay within 208 to 209 °C.

Turning to `COc1ncc(C(F)(F)F)cc1C=NO`, the melting point lay within 98 to 104 °C.

Compound `CN1C(=O)[C@@H](NC(=O)C=Cc2ccccc2)N=C(c2ccccc2)c2ccccc21` displayed a melting point of 126 to 140 °C.

`COc1cc(-c2ncnc(Cl)c2Cl)c(F)cc1Cl` gave a melting point of 116 to 117 °C.

In turn, `CC(C)(OCc1cc2cc(C(F)(F)F)ccc2n1S(=O)(=O)c1ccccc1)C(=O)O` had a melting point of 134 to 136 °C.

In turn, `Cc1nnc2n1-c1ccc(Cl)cc1C(N1CCCCC1)=NC2` gave a melting point of 238 to 243 °C.

`CC(C)(C)[Si](OCC[C@H](O)CO)(c1ccccc1)c1ccccc1` yielded a melting point of 70 to 72 °C.

Compound `COc1ccc(N2Cc3ccccc3P2(=O)C(C)C)cc1` (centres undefined) registered a melting point of 135 to 137 °C.

Consider `CN1CCc2[nH]c(=O)n3nc(-c4ccccc4F)nc3c2C1`, for which the melting point fell in the range of 285 to 287 °C.

`Cc1ccc(-c2cc3c(n2-c2ccc(O)c(C(=O)O)c2)CCCC3)cc1` yielded a melting point of 212 to 214 °C.

`CCOC(=O)C(C)(C)C(=O)C(Oc1ccc(Cl)cc1)n1cncn1` (centres undefined) came in with a melting point of 88 to 89 °C.

In the case of `O=C(O)CN1CC(=O)NC1=NN=Cc1ccccc1`, the melting point was in the range of 218 to 222 °C.

In turn, `O=C(Cc1cccc2ccccc12)NC1CCC2(O)C3Cc4ccc(O)c5c4C2(CCN3CC2CC2)C1O5` (centres undefined) yielded a melting point of 213 to 215 °C.

Consider `Cc1cc2c(c(N3CC[C@H](N(C)C)C3)c1-c1ccccc1)OC(C#N)(C(=O)N1CCCCC1)N2` (some centres undefined), for which the melting point lay within 170 to 173 °C.

With `COc1ccccc1Oc1c(NS(=O)(=O)c2ccc(C(C)(C)C)cc2)nc(CO)nc1OCCOc1ncc(Br)cn1`, the melting point fell in the range of 161 to 162 °C.

Compound `CN1CCCCC1=NC(=O)Nc1ccc(C(F)(F)F)cc1` showed a melting point of 154 to 155 °C.

On to `CN1C(C(=O)Nc2nc3c(s2)CCCC3)=C(O)c2ccc3ccccc3c2S1(=O)=O`, for which the melting point fell in the range of 255 to 257 °C.

Compound `CC(C)NC(=O)OCC(=O)c1ccccc1F` showed a melting point of 70 to 74 °C.

`COc1ccc(CN(C)C(=O)c2c(-c3ccncc3)c(-c3ccc(F)cc3)nn2C)cc1` had a melting point of 150 to 153 °C.

In turn, `O=C(NCC(=O)c1cccs1)c1ccccc1` yielded a melting point of 146 to 147 °C.

The compound `Cc1cccc(-c2n[nH]cc2-c2ccc(F)c(-c3ccc(S(=O)(=O)C(F)F)cc3)c2)n1` returned a melting point of 80 to 82 °C.

On to `CN1Cn2ncc([N+](=O)[O-])c2-c2ccccc21`, for which the melting point was 172 to 173 °C.

For `Cc1ccc(C(=O)Nc2ccc(-n3ccnc3)c(C(F)(F)F)c2)cc1Nc1nccc(-c2cccnc2)n1`, the melting point was in the range of 226 to 229 °C.

Turning to `COc1ccc(CNc2nc(CCC(=O)O)nc3sc(Cl)cc23)cc1Cl`, the melting point was 126 °C.

As for `COc1ccc(C(Sc2cc(Oc3ccc(F)cc3)ccc2N)C(O)C(=O)O)cc1` (centres undefined), the melting point was in the range of 190 to 193 °C.

`CCCC(=O)Nc1ccc(O)c(C(=O)C=CN(C)C)c1` gave a melting point of 174 °C.

Turning to `O=C1NC(=O)C2(C=Cc3c(Cl)sc(Cl)c32)N1` (centres undefined), the melting point was 239 to 241 °C.

For `CC(=O)Oc1cc2c(c3ccccc13)Nc1ccccc1O2`, the melting point was in the range of 152 to 155 °C.

Regarding `COc1ccc(OC)c(Cc2cc(C)cc(OC)c2C(=O)O)c1`, the melting point fell in the range of 172 to 174 °C.

`N#Cc1ccc(Cn2c(=O)c(C#N)c(N3CCN(C(=O)c4cccs4)CC3)c3cccnc32)cc1` yielded a melting point of 241 °C.

With `CC(=O)OC1CSC(Oc2ccc(F)nc2)C(OC(C)=O)C1OC(C)=O` (centres undefined), the melting point was 123 °C.

Take `CNc1cc(-c2ccc(Cl)cc2)nc(C(=O)OC)c1N`: the melting point lay within 178 to 200 °C.

As for `O=C1c2ccc([N+](=O)[O-])c3c([N+](=O)[O-])ccc(c23)C(=O)N1O`, the melting point lay in the range of 290 to 291 °C.

In turn, `O=C1CN2C(=O)C(c3ccccc3)c3cccc(c32)N1` (centres undefined) returned a melting point of 235 °C.

As for `Cc1c(Br)c2c(c(C)c1NC(=O)CC(C)(C)C)C(c1ccc(C(C)C)cc1)CO2` (centres undefined), the melting point was 118 to 119 °C.

`CC1(C)CC(c2ccc(F)cc2)=C(c2ccc(S(N)(=O)=O)cc2)C1` gave a melting point of 117 to 118 °C.

`CC(C)(C)C1=NC=C2C=CC(=O)NC3=C2N1CC3`: the melting point fell in the range of 246 to 248 °C.

In turn, `Cc1nc2c(OCc3c(Cl)ccc(NC(C)C)c3Cl)cccn2c1Br` displayed a melting point of 133 to 134 °C.

With `CCOC(=O)C=Cc1cccc([N+](=O)[O-])c1C`, the melting point lay within 53 to 55 °C.

Compound `CC(C)(C)OC(=O)Nc1ccc(C#Cc2ccccn2)cc1[N+](=O)[O-]` registered a melting point of 142 to 144 °C.

Turning to `CN(C)CCNC1=CC(=O)c2oc(-c3cc(F)ccc3F)nc2C1=O`, the melting point was 181 to 182 °C.

For `O=[N+]([O-])c1ccccc1OC1SCC(O)C(O)C1O` (centres undefined), the melting point fell in the range of 137 to 140 °C.

On to `Cc1cc(-c2nnn(C)n2)cc(C)c1OCCCn1cncn1`, for which the melting point was in the range of 76 to 78 °C.

Compound `O=c1[nH]c2c(c(=O)n1CCCN1CCN(c3ccccc3OCC(F)(F)F)CC1)CCCC2` registered a melting point of 148 to 150 °C.

`NC(=O)c1cccc(C(=O)Nc2ccc(-n3nc(C(F)(F)F)cc3C(F)(F)F)cc2)c1`: the melting point was 244 to 245 °C.

With `CC(C)(CCBr)CC(=O)O`, the melting point lay in the range of 53 to 55 °C.

`CCC(=O)CS(=O)(=O)c1ccc(OS(=O)(=O)c2ccc(C)cc2)cc1` yielded a melting point of 104 to 106 °C.

Compound `CO[C@]1(c2csc(S(=O)(=O)c3ccc4c(c3)CC/C4=N\O)c2)CCO[C@@H]1C` (racemic) returned a melting point of 170 to 172 °C.

In the case of `CCOC(=O)c1c(-c2ccccc2C)c2cc3c(cc2[nH]c1=O)CCC3`, the melting point fell in the range of 296 to 298 °C.

In turn, `CCOC(=O)c1ncn(C)c1N` had a melting point of 193 to 194 °C.

On to `COC1C=C(C)C(=O)CC(C)(C)C1OC(=O)Cc1csc(N)n1` (centres undefined), for which the melting point is 116 to 117 °C.

Compound `CC(=O)OCCS(=O)(=O)C(F)(F)C(O)(Cn1cncn1)c1ccc(F)cc1F` (centres undefined) gave a melting point of 77 to 80 °C.

In the case of `Cc1cccc(Sc2cncc3sc(C(N)=O)cc23)c1`, the melting point was 171 to 173 °C.

`OC[C@H]1CC[C@H](c2ccc(Cl)cc2)CC1` gave a melting point of 60 to 63 °C.

On to `CCN(C)c1nc2cc(-c3ccccc3)nnc2c2ccccc12`, for which the melting point was in the range of 130 to 133 °C.

In turn, `CCCCCCCCCCCCNCC(O)CO` (centres undefined) displayed a melting point of 75 to 76 °C.

For `COc1cc(I)nc(N)n1`, the melting point lay in the range of 142 to 144 °C.

`COC(=O)CCC#Cc1cc(Cl)ccc1[N+](=O)[O-]` had a melting point of 75 to 78 °C.

Turning to `COc1cc(Cl)c(C#N)cc1C(=O)O`, the melting point lay in the range of 100 to 102 °C.

`CC(C)(C)OC(=O)C(=O)C=Cc1cccnc1` registered a melting point of 51 to 52 °C.

Compound `CSc1nsc(N)c1C#N` showed a melting point of 188 to 189 °C.

The compound `CC(C(=O)O)c1ccc(O[Si](C)(C)C(C)(C)C)cc1` (centres undefined) showed a melting point of 52 to 54 °C.

In turn, `CC(O)c1ccc(Cl)c(S(N)(=O)=O)c1` (centres undefined) gave a melting point of 144 to 146 °C.

Take `O=C1CCC(N2Cc3c(CNC(=O)Nc4ccc(Cl)cc4)cccc3C2=O)C(=O)N1` (centres undefined): the melting point was over 260 °C.

Turning to `CCOC(=O)c1cc(-n2c(OCC)nc(C(F)(F)F)cc2=O)c(F)cc1Cl`, the melting point is 94 to 96 °C.

With `O=C(O)Cc1ccc(-c2ccc(F)cc2F)c(Cl)c1`, the melting point fell in the range of 114 to 116 °C.

Compound `CCC(NC(=O)C1CC1)c1ccc(Cl)c2nc3n(c12)CCCN3c1ccc(Cl)cc1Cl` (centres undefined) yielded a melting point of 251 to 253 °C.

In turn, `CCCCCCCCCCOc1ccc(-c2ccc(CCCCC(C)O)cc2)cc1` (centres undefined) returned a melting point of 92 to 93 °C.

The compound `CCOc1ccc(N)nc1C` registered a melting point of 93 to 96 °C.

`CCOC(=O)C(=O)c1cc(Cl)c(C)cc1F` displayed a melting point of 84 to 85 °C.

Consider `O=C(Nc1ccccc1)C1CCc2c(cnc3[nH]ncc23)C1` (centres undefined), for which the melting point is over 300 °C.

On to `CN1C(=O)COc2cc3c(cc21)C1(CO3)C(=O)Nc2ccccc21` (centres undefined), for which the melting point is over 250 °C.

For the compound `CCCc1nc2ccc(C(=O)NCc3ccc(N(C)C)cc3)cc2n1Cc1ccccc1Cl`, the melting point lay within 155 to 156 °C.

For `CC(C)(C)[Si](C)(C)Oc1ccc2[nH]nc(N3C(=O)c4ccccc4C3=O)c2c1`, the melting point was 225 to 228 °C.

With `CCCCCCCCCCCCCCCCn1c(C2=CC(=O)c3ccccc3C2=O)ccc1C1=CC(=O)c2ccccc2C1=O`, the melting point was 40 to 43 °C.

Compound `O=C1CSc2nc(Oc3ccc(N4CCNCC4)cc3)ncc2N1` had a melting point of 309 to 312 °C.

Take `CCOC(=O)C(O)=CC(=O)c1ccc(C)o1`: the melting point was in the range of 88 to 92 °C.

Regarding `CCCCCC(CC(=O)Nc1cc(C(=O)O)ccc1C(C)(C)C)c1cccc(OC)c1OC` (centres undefined), the melting point lay in the range of 146 to 147 °C.

In turn, `CN(C)c1cccc(N(C)C)c1NC(=O)N(Cc1ccc(O)cc1)CC1(c2ccccn2)CCCCC1` showed a melting point of 162 to 166 °C.

Take `COc1cc(C=CC(=O)c2ccccc2O)cc(OC)c1`: the melting point was in the range of 110 to 111 °C.

For `CCCNC(=O)C=C1SC(Nc2c(Cl)cccc2Cl)=NC1=O`, the melting point was over 230 °C.
